Values of other authors as cited in US6537523B1, “Diagnosis and treatment of cancer having clonal macrophage involvement” (The Regents of the University of California, priority 1994, dated 2003).

Test system: HIV antigens in human blood cells including macrophages

Trichosanthin
expression of HIV antigens: inhibit expression of HIV antigens
